Results reported in patent US20240122834A1, “MEDICAMENT FOR PREVENTION AND TREATMENT OF HYPERPIGMENTATION” (SYMRISE AG, priority 2021, published 2024).

Test system: tyrosinase activity in B16 melanoma cells
Assay: Tyrosinase activity in B16 melanoma cells (lysate, L-dopa to dopachrome, absorbance 475 nm)
Assay type: cell-based
Conditions: B16 cells treated for 3 days, untreated control = 100
Excerpt: Tyrosinase is an oxidase that is the rate-limiting enzyme for controlling the production of melanin. The enzyme is mainly involved in two distinct reactions of melanin synthesis; firstly, the hydroxylation of a monophenol and secondly, the conversion of an o-diphenol to the corresponding o-quinone. o-quinone undergoes several reactions to eventually form melanin Tyrosinase is a copper-containing enzyme present in plant and animal tissues that catalyzes the production of melanin and other pigments from tyrosine by oxidation. It is found inside melanosomes which are synthesized in the skin melanocytes. In humans, the tyrosinase enzyme is encoded by the TYR gene.
To measure the tyrosinase activity of the cells, the B16 cells treated for 3 days with several doses of compounds were lysed by incubation at 4° C. for 30 min in lysis buffer (20 mM sodium phosphate, pH 6.8, 1% Triton X-100, 1 mM PMSF, 1 mM EDTA) containing protease inhibitors cocktail. The lysates were centrifuged at 15,000×g for 10 min to obtain the supernatant as the source of tyrosinase. The reaction mixture contained 20 mM phosphate buffer, pH 6.8, 1.25 mM L-dopa (Sigma-Aldrich). After incubation at 37° C. for 2 h, dopachrome formation was monitored by measuring absorbance at a wavelength of 475 nm in a microplate reader (TECAN).

Compound | Tyrosinase Activation (sample conc. 1 μg/ml) [%] | Tyrosinase Activation (sample conc. 10 μg/ml) [%] | other results
C=CCOC(=O)COc1ccccc1 [Allyl phenoxyacetate] | 62 | 50 | Tyrosinase Activation (sample conc. 50 μg/ml): 48%
CC(=O)OC1CC(C)CC(C)(C)C1 (stereo not shown) [Mintonat, Homomenthyl acetate] | 80 |  | 
CC(=O)CCc1ccccc1 [Benzyl acetone] |  |  | Tyrosinase Activation (sample conc. 5 μg/ml): 90%; Tyrosinase Activation (sample conc. 25 μg/ml): 80%; Tyrosinase Activation (sample conc. 100 μg/ml): 90%
C=CCOC(=O)COC1CCCCC1 [Cyclogalbanate] |  | 73 | 
CCCCCCCCCCCC=O [Aldehyde C12] | 82 |  | Tyrosinase Activation (sample conc. 0.1 μg/ml): 78%
O=Cc1ccccc1 [Benzaldehyde] |  | 75 | 
CC(C)=CCC(C)(C)C(=O)C(C)C [Claritone] |  |  | Tyrosinase Activation (sample conc. 2.5 μg/ml): 70%
COC(Cc1ccccc1)OC [Phenyl acetaldehyde dimethyl acetal] |  | 80 | Tyrosinase Activation (sample conc. 100 μg/ml): 78%
CCCCCc1cc(O)c(C/C=C(\C)CCC=C(C)C)c(O)c1 [(−) CBG] | 55 |  | Tyrosinase Activation (sample conc. 0.5 μg/ml): 62%
